Laboratory results published in US6780872B2, “Tricyclic dihydropyrazolone and tricyclic dihydroisoxazolone potassium channel openers” (Abbott Laboratories, priority 2000, dated 2004).

Test system: guinea-pig urinary bladder (GPB) cells
Experiment: Membrane hyperpolarization (MHP) assay, DiBAC(4)3 dye, FLIPR
Format: cell-based
Details: Cavia porcellus; for Emax: maximal steady-state hyperpolarization in GPB cells, normalized to response with 10 μM P1075 (=100%); for EC50: membrane hyperpolarization in GPB cells, concentration eliciting 50% of the maximal response of the test sample
Description: Compounds were evaluated for potassium channel opening activity using primary cultured guinea-pig urinary bladder (GPB) cells.
For the preparation of urinary bladder smooth muscle cells, urinary bladders were removed from male guinea-pigs (Hartley, Charles River, Wilmington, Mass.) weighing 300-400 g and placed in ice-cold Ca^2+-free Krebs solution (Composition, mM: KCl, 2.7; KH2PO4, 1.5; NaCl, 75; Na2HPO4, 9.6; Na2HPO4.7H2O, 8; MgSO4, 2; glucose, 5; HEPES, 10; pH 7.4). Cells were isolated by enzymatic dissociation as previously described with minor modifications in (Klockner, U. and Isenberg, G., Pflugers Arch. 1985, 405, 329-339), hereby incorporated by reference. The bladder was cut into small sections and incubated in 5 mL of the Kreb's solution containing 1 mg/mL collagenase (Sigma, St. Louis, Mo.) and 0.2 mg/mL pronase (Calbiochem, La Jolla, Calif.) with continuous stirring in a cell incubator for 30 minutes. The mixture was then centrifuged at 1300×g for 5 minutes, and the pellet resuspended in Dulbecco's PBS (GIBCO, Gaithersburg, Md.) and recentrifuged to remove residual enzyme. The cell pellet was resuspended in 5 mL growth media (composition: Dulbecco's modified Eagle's medium supplemented with 10% fetal bovine serum, 100 units/mL penicillin, 100 units/mL streptomycin and […] amphotericin B) and further dissociated by pipetting the suspension through a flame-polished Pasteur pipette and passing it through a polypropylene mesh membrane (Spectrum, Houston, Tex.). The cell density was adjusted to 100,000 cells/mL by resuspension in growth media. Cells were plated in clear-bottomed black 96-well plates (Packard) for membrane potential studies at a density of 20,000 cells/well and maintained in a cell incubator with 90% air: 10% CO2 until confluent. Cells were confirmed to be of smooth muscle type by cytoskeletal staining using a monoclonal mouse anti human-α-smooth muscle actin (Biomeda, Foster City, Calif.).
Functional activity at potassium channels was measured by evaluating changes in membrane potential using the bis-oxonol dye DiBAC(4)3 (Molecular Probes) in a 96-well cell-based kinetic assay system, Fluorescent Imaging Plate Reader (FLIPR) (K. S. Schroeder et al., J. Biomed. Screen., v. 1 pp. 7581 (1996)), hereby incorporated by reference. DiBAC(4) is an anionic potentiometric probe which partitions between cells and extracellular solution in a membrane potential-dependent manner. With increasing membrane potential (for example, K^+ depolarization), the probe further partitions into the cell; this is measured as an increase in fluorescence due to dye interaction with intracellular lipids and proteins. Conversely, decreasing membrane potential (hyperpolarization by potassium channel openers) evokes a decrease in fluorescence.
Confluent guinea-pig urinary bladder cells cultured in black clear-bottomed 96-well plates were rinsed twice with […] assay buffer (composition, mM: HEPES, 20; NaCl, 120; KCl, 2; CaCl2, 2; MgCl2, 1; glucose, 5; pH 7.4 at 25° C.) containing 5 μM DiBAC(4) and incubated with […] of the buffer in a cell incubator for 30 minutes at 37° C. to ensure dye distribution across the membrane. After recording the baseline fluorescence for 5 minutes, the reference or test compounds, prepared at 10 times the concentration in the assay buffer, were added directly to the wells. Changes in fluorescence were monitored for an additional 25 minutes. Hyperpolarization responses were corrected for any background noise and were normalized to the response observed with 10 μM of the reference compound P1075, N″-cyano-N-(tert-pentyl)-N′-(3-pyridinyl)guanidine, which was assigned as 100%. P1075 is a potent opener of smooth muscle KATP channels (Quast et al., Mol. Pharmacol., v. 43 pp. 474-481 (1993)) and was prepared using the procedures described in (Manley, J. Med. Chem. (1992) 35, 2327-2340), hereby incorporated by reference. […]

Compound | Emax | EC50
Cn1[nH]c(=O)c2c1NC1=C(C(=O)C(C)(C)CC1)C2c1ccc(F)c(I)c1 (stereo not shown) [Example 23, 4-(4-fluoro-3-iodophenyl)-1,6,6-trimethyl-4,7,8,9-tetrahydro-1H-pyrazolo[3,4-b]quinoline-3,5(2H,6H)-dione] | 90% | 70 nM
O=C1CCC2=C1C(c1ccc(F)c(Br)c1)c1c(n(-c3ccccn3)[nH]c1=O)N2 (stereo not shown) [Example 6, 4-(3-bromo-4-fluorophenyl)-1-(2-pyridinyl)-1,2,4,6,7,8-hexahydrocyclopenta[b]pyrazolo[4,3-e]pyridine-3,5-dione] | – | > 10000 nM
O=C1CCC2=C1C(c1ccc(F)c(Br)c1)c1c([nH]n(-c3ccccc3)c1=O)N2 (stereo not shown) [Example 20, 4-(3-bromo-4-fluorophenyl)-2-phenyl-1,2,4,6,7,8-hexahydrocyclopenta[b]pyrazolo[4,3-e]pyridine-3,5-dione] | 48% | > 10000 nM
Cn1[nH]c(=O)c2c1NC1=C(C(=O)C(C)(C)CC1)C2c1ccc(F)c(-c2ccco2)c1 (stereo not shown) [Example 25, 4-[4-fluoro-3-(2-furyl)phenyl]-1,6,6-trimethyl-4,7,8,9-tetrahydro-1H-pyrazolo[3,4-b]quinoline-3,5(2H,6H)-dione] | 78% | 3200 nM
Cn1[nH]c(=O)c2c1NC1=C(C(=O)CCC1)C2c1ccc(F)c(Br)c1 (stereo not shown) [Example 18, 4-(3-bromo-4-fluorophenyl)-1-methyl-4,7,8,9-tetrahydro-1H-pyrazolo[3,4-b]quinoline-3,5(2H,6H)-dione] | 80% | 1970 nM
O=C1CCC2=C1C(c1ccc(F)c(Br)c1)c1c([nH][nH]c1=O)N2 (stereo not shown) [Example 2, 4-(3-bromo-4-fluorophenyl)-1,2,4,6,7,8-hexahydrocyclopenta[b]pyrazolo[4,3-e]pyridine-3,5-dione] | 90% | 2770 nM
O=C1CCCC2=C1C(c1ccc(F)c(Br)c1)c1c([nH][nH]c1=O)N2 (stereo not shown) [Example 3, 4-(3-bromo-4-fluorophenyl)-4,7,8,9-tetrahydro-1H-pyrazolo[3,4-b]quinoline-3,5(2H,6H)-dione] | 82% | 1720 nM
Cn1[nH]c(=O)c2c1NC1=C(C(=O)COC1)C2c1ccc(F)c(Br)c1 (stereo not shown) [Example 26, 4-(3-bromo-4-fluorophenyl)-1-methyl-1,2,4,9-tetrahydropyrano[3,4-b]pyrazolo[4,3-e]pyridine-3,5(6H,8H)-dione] | 99% | 50 nM
Cn1[nH]c(=O)c2c1NC1=C(C(=O)CC1)C2c1ccc(F)c(C(F)(F)F)c1 (stereo not shown) [Example 9, 4-[4-fluoro-3-(trifluoromethyl)phenyl]-1-methyl-1,2,4,6,7,8-hexahydrocyclopenta[b]pyrazolo[4,3-e]pyridine-3,5-dione] | 89% | 680 nM
Cn1[nH]c(=O)c2c1NC1=C(C(=O)CC1)C2c1ccc(F)c(I)c1 (stereo not shown) [Example 12, 4-(4-fluoro-3-iodophenyl)-1-methyl-1,2,4,6,7,8-hexahydrocyclopenta[b]pyrazolo[4,3-e]pyridine-3,5-dione] | 101% | 320 nM
Cn1[nH]c2c(c1=O)C(c1ccc(F)c(Br)c1)C1=C(CCC1=O)N2 (stereo not shown) [Example 19, 4-(3-bromo-4-fluorophenyl)-2-methyl-1,2,4,6,7,8-hexahydrocyclopenta[b]pyrazolo[4,3-e]pyridine-3,5-dione] | – | > 10000 nM
Cn1[nH]c(=O)c2c1NC1=C(C(=O)CC1)C2c1csc([N+](=O)[O-])c1 (stereo not shown) [Example 15, 1-methyl-4-(5-nitro-3-thienyl)-1,2,4,6,7,8-hexahydrocyclopenta[b]pyrazolo[4,3-e]pyridine-3,5-dione] | 58% | 7700 nM
Cn1[nH]c(=O)c2c1NC1=C(C2c2ccc(F)c(Br)c2)S(=O)(=O)CC1 (stereo not shown) [Example 21, 4-(3-bromo-4-fluorophenyl)-1-methyl-1,2,4,6,7,8-hexahydro-3H-pyrazolo[3,4-b]thieno[2,3-e]pyridin-3-one 5,5-dioxide] | – | > 10000 nM
CCn1[nH]c(=O)c2c1NC1=C(C(=O)CC1)C2c1ccc(F)c(Br)c1 (stereo not shown) [Example 4, 4-(3-bromo-4-fluorophenyl)-1-ethyl-1,2,4,6,7,8-hexahydrocyclopenta[b]pyrazolo[4,3-e]pyridine-3,5-dione] | 103% | 270 nM
Cn1[nH]c(=O)c2c1NC1=C(C(=O)C(C)(C)CC1)C2c1ccc(Cl)c(Cl)c1 (stereo not shown) [Example 24, 4-(3,4-dichlorophenyl)-1,6,6-trimethyl-4,7,8,9-tetrahydro-1H-pyrazolo[3,4-b]quinoline-3,5(2H,6H)-dione] | 82% | 180 nM
Cn1[nH]c(=O)c2c1NC1=C(C(=O)OCC1)C2c1ccc(F)c(Br)c1 (stereo not shown) [Example 31, 4-(3-bromo-4-fluorophenyl)-1-methyl-1,2,4,7,8,9-hexahydropyrano[4,3-b]pyrazolo[4,3-e]pyridine-3,5-dione] | 96% | 760 nM
Cn1[nH]c(=O)c2c1NC1=C(C(=O)CC1)C2c1ccc2nsnc2c1 (stereo not shown) [Example 17, 4-(2,1,3-benzothiadiazol-5-yl)-1-methyl-1,2,4,6,7,8-hexahydrocyclopenta[b]pyrazolo[4,3-e]pyridine-3,5-dione] | – | > 10000 nM
Cc1ccc(C2C3=C(CCC3=O)Nc3c2c(=O)[nH]n3C)cc1I (stereo not shown) [Example 11, 4-(3-iodo-4-methylphenyl)-1-methyl-1,2,4,6,7,8-hexahydrocyclopenta[b]pyrazolo[4,3-e]pyridine-3,5-dione] | 109% | 530 nM
Cn1[nH]c(=O)c2c1NC1=C(C(=O)OC1)C2c1ccc(F)c(Br)c1 (stereo not shown) [Example 32, 4-(3-bromo-4-fluorophenyl)-1-methyl-4,8-dihydro-1H-furo[3,4-b]pyrazolo[4,3-e]pyridine-3,5(2H,7H)-dione] | 73% | 520 nM
Cn1[nH]c(=O)c2c1NC1=C(C(=O)CC1)C2c1ccc(F)c(Br)c1 (stereo not shown) [Example 1, 4-(3-bromo-4-fluorophenyl)-1-methyl-1,2,4,6,7,8-hexahydrocyclopenta[b]pyrazolo[4,3-e]pyridine-3,5-dione] | 91% | 550 nM
Cn1[nH]c(=O)c2c1NC1=C(C(=O)CC1)C2c1ccc2nonc2c1 (stereo not shown) [Example 16, 4-(2,1,3-benzoxadiazol-5-yl)-1-methyl-1,2,4,6,7,8-hexahydrocyclopenta[b]pyrazolo[4,3-e]pyridine-3,5-dione] | – | > 10000 nM
Cn1[nH]c(=O)c2c1NC1=C(C(=O)CC1)C2c1ccc(Cl)c([N+](=O)[O-])c1 (stereo not shown) [Example 10, 4-(4-chloro-3-nitrophenyl)-1-methyl-1,2,4,6,7,8-hexahydrocyclopenta[b]pyrazolo[4,3-e]pyridine-3,5-dione] | 90% | 2350 nM
Cc1ccc(C2C3=C(CCC3=O)Nc3c2c(=O)[nH]n3C)cc1Br (stereo not shown) [Example 8, 4-(3-bromo-4-methylphenyl)-1-methyl-1,2,4,6,7,8-hexahydrocyclopenta[b]pyrazolo[4,3-e]pyridine-3,5-dione] | 83% | 480 nM
CC(C)(C)n1[nH]c(=O)c2c1NC1=C(C(=O)CC1)C2c1ccc(F)c(Br)c1 (stereo not shown) [Example 5, 4-(3-bromo-4-fluorophenyl)-1-tert-butyl-1,2,4,6,7,8-hexahydrocyclopenta[b]pyrazolo[4,3-e]pyridine-3,5-dione] | – | > 10000 nM
Cn1[nH]c(=O)c2c1NC1=C(C(=O)CC1)C2c1ccc(F)c(-c2ccco2)c1 (stereo not shown) [Example 14, 4-[4-fluoro-3-(2-furyl)phenyl]-1-methyl-1,2,4,6,7,8-hexahydrocyclopenta[b]pyrazolo[4,3-e]pyridine-3,5-dione] | – | > 10000 nM
